This experiment addresses T1, human GPR84 receptor (Homo sapiens, UniProt Q9NQS5).
T1 construct: frozen aliquots prepared by acCELLerate; host or cells: CHO-K1
Nature of the experiment: cAMP HTRF assay for identification of cellular GPR84 antagonists. Particulars: CHO-K1 cells stably expressing human GPR84; Forskolin plus agonist 6-OAU; cAMP HTRF readout; average or median values. Type of experiment: cell-based. The text has this:
cAMP HTRF® Assay for Identification of Cellular GPR84 Antagonists
By using a Homogenous Time-Resolved Fluorescence (HTRF®) based assay (#62AM5PEJ, Cisbio, Condolet, France) the inhibition of the Gi-coupled GPR84 receptor can be detected. CHO-K1 cells stably expressing human GPR84 receptor (purchased from DiscoveRx, now Eurofins) were used and treated with Forskolin (F6886, Sigma, Germany) to stimulate membrane adenylyl cyclases and thereby unspecific cAMP formation. Activation of the Gi-coupled GPR84 by a natural or small molecule agonist (e.g. 6-n-octyl aminouracile, inhouse) results in inhibition of cellular cAMP formation which can be released again by antagonists to this receptor. Detection and quantification of cellular cAMP levels in this HTRF assay is achieved by interaction between a fluorescent cAMP tracer (cAMP-d2) and an Eu-cryptate labelled anti-cAMP antibody. Following excitation at 337 nm this pairing allows for the generation of a fluorescence resonance energy transfer (FRET) between the partners and results in FRET induced emissions at 665 nm and 620 nm, the latter representing background signal by Eu-cryptate labelled anti-cAMP antibody. Maximal signal is obtained in the absence of any cellular cAMP (no competition for the binding of the tracer to the antibody). Given the combination of the Gi coupling properties of GPR84 and the competitive nature of the detection system agonist treatment should result in an increase in the HTRF signal due to lowered cAMP levels. Any signal decrease in the presence of Forskolin, agonist and compound are indicative of antagonist mediated abrogation of GPR84 signalling.
For the assay, frozen aliquots of CHO-K1 cells expressing hGPR84 (prepared by acCELLerate, Hamburg, Germany) were thawed and a cell suspension (1.67E+06 cells/mL) in assay media (Ham's F12 Nutrient Mix, Thermo Fisher Scientific, Waltham, USA; 5% fetal calf serum, Biomol, Hamburg, Germany) containing cAMP-d2 (dilution 1:20, supplied with the kit #62AM5PEJ, Cisbio, Condolet, France) was prepared. After recovery of cells for 20 minutes at 37° C., 3 μL/well cell suspension including cAMP-d2 were added to a pre-dispensed assay plate (Greiner Bio-One, Kremsmuenster, Austria) containing 50 nl/well test compound in 100% DMSO or 100% DMSO as control. This was followed by a 30 minute incubation step at room temperature. The stimulation time was started by addition of 2 μL/well assay media containing 2.5×EC80 agonist 6-OAU and 2.5×EC90 Forskolin (negative control: 2.5×EC90 Forskolin in assay media) and was continued for 30 minutes at room temperature. The reaction was stopped by addition of 3 μL/well lysis buffer containing cAMP Eu-Cryptate antibody (dilution 1:20) (both supplied with the kit #62AM5PEJ, Cisbio, Condolet, France). To enable complete lysis, plates were incubated for 60 minutes at room temperature before measurement in an HTRF reader, e.g. a PHERAstar (BMG Labtech, Ortenberg, Germany).
From the fluorescence emissions at 665 nm (FRET) and at 620 nm (background signal of Eu-cryptate) the ratio (emission at 665 nm divided by emission at 620 nm×10000) was calculated and the data were normalized (reaction without test compound, only 100% DMSO=0% inhibition; all other assay components except agonist=100% inhibition). For dose response testing on the same microtiter plate, compounds were tested at 11 different concentrations in the range of 20 μM to 0.07 nM (20 μM, 5.7 μM, 1.6 μM, 0.47 μM, 0.13 μM, 38 nM, 11 nM, 3.1 nM, 0.89 nM, 0.25 and 0.07 nM; dilution series prepared before the assay at the level of the 100-fold conc. stock solutions by serial 1:3.5 dilutions in 100% DMSO) in duplicate values for each concentration. IC50 values were calculated by 4-parameter fitting using a commercial software package (Genedata Screener, Basel, Switzerland).
Examples were tested in selected biological assays one or more times. […]
For orientation: Time-resolved FRET reads energy transfer from a long-lived donor to a nearby acceptor.

Each structure is given as a SMILES string.

T1 sequence (Q9NQS5 whole entry): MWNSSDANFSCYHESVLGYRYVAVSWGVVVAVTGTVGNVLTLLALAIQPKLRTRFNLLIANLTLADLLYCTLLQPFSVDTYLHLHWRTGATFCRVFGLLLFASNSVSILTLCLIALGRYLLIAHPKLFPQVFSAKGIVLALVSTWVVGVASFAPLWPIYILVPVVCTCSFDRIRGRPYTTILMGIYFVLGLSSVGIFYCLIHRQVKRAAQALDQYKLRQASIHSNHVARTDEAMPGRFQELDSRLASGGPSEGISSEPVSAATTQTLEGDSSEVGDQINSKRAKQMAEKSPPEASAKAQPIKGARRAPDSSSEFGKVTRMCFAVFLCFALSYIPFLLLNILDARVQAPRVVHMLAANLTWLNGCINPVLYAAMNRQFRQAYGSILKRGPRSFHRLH

By IC50 is commonly meant the concentration that inhibits the measured activity by half. Turning to `Cc1c(C(=O)NCCN2CCN(C)CC2)oc2c1-c1nn(Cc3cccc(Cl)c3)cc1CC2` [Example 17, 2-[(3-chlorophenyl)methyl]-8-methyl-N-[2-(4-methylpiperazin-1-yl)ethyl]-4,5-dihydro-2H-furo[2,3-g]indazole-7-carboxamide], the IC50 was 0.32 µM.

For `Cc1c(C(=O)NCCN2CCCC2)oc2c1-c1nn(Cc3cccc(Cl)c3)cc1CC2` [Example 18, 2-[(3-chlorophenyl)methyl]-8-methyl-N-[2-(pyrrolidin-1-yl)ethyl]-4,5-dihydro-2H-furo[2,3-g]indazole-7-carboxamide], the IC50 stood at 1 µM. Turning to `Cc1c(C(=O)NCCN2CCCCC2)oc2c1-c1nn(Cc3cccc(Cl)c3)cc1CC2` [Example 19, 2-[(3-chlorophenyl)methyl]-8-methyl-N-[2-(piperidin-1-yl)ethyl]-4,5-dihydro-2H-furo[2,3-g]indazole-7-carboxamide], the IC50 was found to be 0.78 µM. For `Cc1c(C(=O)NCCN2CCC2)oc2c1-c1nn(Cc3cccc(Cl)c3)cc1CC2` [Example 20, N-[2-(azetidin-1-yl)ethyl]-2-[(3-chlorophenyl)methyl]-8-methyl-4,5-dihydro-2H-furo[2,3-g]indazole-7-carboxamide] the value was 1.54 µM. `Cc1ccc(CNC(=O)c2oc3c(c2C)-c2nn(Cc4ccc(Cl)cc4)cc2CC3)cc1` [Example 22, 2-[(4-chlorophenyl)methyl]-8-methyl-N-[(4-methylphenyl)methyl]-4,5-dihydro-2H-furo[2,3-g]indazole-7-carboxamide]: the IC50 was determined as 0.34 µM. Consider `Cc1c(C(=O)NCCN2CCN(C)CC2)oc2c1-c1nn(Cc3ccc(Cl)cc3)cc1CC2` [Example 23, 2-[(4-chlorophenyl)methyl]-8-methyl-N-[2-(4-methylpiperazin-1-yl)ethyl]-4,5-dihydro-2H-furo[2,3-g]indazole-7-carboxamide], for which the IC50 was 0.3 µM. Regarding `Cc1c(C(=O)NCCN2CCCC2)oc2c1-c1nn(Cc3ccc(Cl)cc3)cc1CC2` [Example 24, 2-[(4-chlorophenyl)methyl]-8-methyl-N-[2-(pyrrolidin-1-yl)ethyl]-4,5-dihydro-2H-furo[2,3-g]indazole-7-carboxamide], the IC50 worked out at 1.05 µM.

With `Cc1c(C(=O)NCCN2CCCCC2)oc2c1-c1nn(Cc3ccc(Cl)cc3)cc1CC2` [Example 25, 2-[(4-chlorophenyl)methyl]-8-methyl-N-[2-(piperidin-1-yl)ethyl]-4,5-dihydro-2H-furo[2,3-g]indazole-7-carboxamide], the IC50 came to 1.37 µM.

With `Cc1c(C(=O)NCCN2CCC2)oc2c1-c1nn(Cc3ccc(Cl)cc3)cc1CC2` [Example 26, N-[2-(azetidin-1-yl)ethyl]-2-[(4-chlorophenyl)methyl]-8-methyl-4,5-dihydro-2H-furo[2,3-g]indazole-7-carboxamide], the IC50 worked out at 1.63 µM. For `Cc1c(C(=O)NCc2ccon2)oc2c1-c1nn(Cc3ccc(Cl)cc3)cc1CC2` [Example 27, 2-[(4-chlorophenyl)methyl]-8-methyl-N-[(1,2-oxazol-3-yl)methyl]-4,5-dihydro-2H-furo[2,3-g]indazole-7-carboxamide] the value was 0.15 µM; for `Cc1c(C(=O)NCc2ccno2)oc2c1-c1nn(Cc3ccc(Cl)cc3)cc1CC2` [Example 28, 2-[(4-chlorophenyl)methyl]-8-methyl-N-[(1,2-oxazol-5-yl)methyl]-4,5-dihydro-2H-furo[2,3-g]indazole-7-carboxamide], 1.01 µM. The same measure for `CC(=O)N1CCN(C(=O)CNC(=O)c2oc3c(c2C)-c2nn(Cc4ccc(Cl)cc4)cc2CC3)CC1` [Example 29, N-[2-(4-acetylpiperazin-1-yl)-2-oxoethyl]-2-[(4-chlorophenyl)methyl]-8-methyl-4,5-dihydro-2H-furo[2,3-g]indazole-7-carboxamide]: 8.21 µM; for `CCNC(=O)CNC(=O)c1oc2c(c1C)-c1nn(Cc3ccc(Cl)cc3)cc1CC2` [Example 30, 2-[(4-chlorophenyl)methyl]-N-[2-(ethylamino)-2-oxoethyl]-8-methyl-4,5-dihydro-2H-furo[2,3-g]indazole-7-carboxamide]: 0.5 µM. On to `CCN(CC)C(=O)CNC(=O)c1oc2c(c1C)-c1nn(Cc3ccc(Cl)cc3)cc1CC2` [Example 31, 2-[(4-chlorophenyl)methyl]-N-[2-(diethylamino)-2-oxoethyl]-8-methyl-4,5-dihydro-2H-furo[2,3-g]indazole-7-carboxamide], for which the IC50 turned out to be 2.53 µM.

Take `COCCNC(=O)CNC(=O)c1oc2c(c1C)-c1nn(Cc3ccc(Cl)cc3)cc1CC2` [Example 32, 2-[(4-chlorophenyl)methyl]-N-{2-[(2-methoxyethyl)amino]-2-oxoethyl}-8-methyl-4,5-dihydro-2H-furo[2,3-g]indazole-7-carboxamide]: the IC50 is 2.46 µM. As to `Cc1c(C(=O)NCC(=O)NC2CC2)oc2c1-c1nn(Cc3ccc(Cl)cc3)cc1CC2` [Example 33, 2-[(4-chlorophenyl)methyl]-N-[2-(cyclopropylamino)-2-oxoethyl]-8-methyl-4,5-dihydro-2H-furo[2,3-g]indazole-7-carboxamide], the IC50 worked out at 3.31 µM. Regarding `Cc1c(C(=O)NCC(=O)N2CCCC2)oc2c1-c1nn(Cc3ccc(Cl)cc3)cc1CC2` [Example 34, 2-[(4-chlorophenyl)methyl]-8-methyl-N-[2-oxo-2-(pyrrolidin-1-yl)ethyl]-4,5-dihydro-2H-furo[2,3-g]indazole-7-carboxamide], the IC50 is 1.14 µM.

For the compound `Cc1c(C(=O)NCC(=O)N2CCOCC2)oc2c1-c1nn(Cc3ccc(Cl)cc3)cc1CC2` [Example 35, 2-[(4-chlorophenyl)methyl]-8-methyl-N-[2-(morpholin-4-yl)-2-oxoethyl]-4,5-dihydro-2H-furo[2,3-g]indazole-7-carboxamide], the IC50 is 3 µM. Consider `Cc1c(C(=O)NCC(=O)N(C)C)oc2c1-c1nn(Cc3ccc(Cl)cc3)cc1CC2` [Example 36, 2-[(4-chlorophenyl)methyl]-N-[2-(dimethylamino)-2-oxoethyl]-8-methyl-4,5-dihydro-2H-furo[2,3-g]indazole-7-carboxamide], for which the IC50 was 1.19 µM. Turning to `Cc1c(C(=O)NCc2ccn(C)n2)oc2c1-c1nn(Cc3ccc(Cl)cc3)cc1CC2` [Example 37, 2-[(4-chlorophenyl)methyl]-8-methyl-N-[(1-methyl-1H-pyrazol-3-yl)methyl]-4,5-dihydro-2H-furo[2,3-g]indazole-7-carboxamide], the IC50 worked out at 0.18 µM. In the case of `Cc1c(C(=O)NCc2nccs2)oc2c1-c1nn(Cc3ccc(Cl)cc3)cc1CC2` [Example 38, 2-[(4-chlorophenyl)methyl]-8-methyl-N-[(1,3-thiazol-2-yl)methyl]-4,5-dihydro-2H-furo[2,3-g]indazole-7-carboxamide], the IC50 came to 0.21 µM. As for `Cc1c(C(=O)NCc2ccccn2)oc2c1-c1nn(Cc3ccc(Cl)cc3)cc1CC2` [Example 39, 2-[(4-chlorophenyl)methyl]-8-methyl-N-[(pyridin-2-yl)methyl]-4,5-dihydro-2H-furo[2,3-g]indazole-7-carboxamide], the IC50 was 0.28 µM.

In the case of `COCCNC(=O)c1oc2c(c1C)-c1nn(Cc3ccc(Cl)cc3)cc1CC2` [Example 40, 2-[(4-chlorophenyl)methyl]-N-(2-methoxyethyl)-8-methyl-4,5-dihydro-2H-furo[2,3-g]indazole-7-carboxamide], the IC50 is 0.41 µM.

(Values after patent publication US20240239804A1, “FUROINDAZOLE DERIVATIVES AS ANTAGONISTS OR INHIBITORS OF GPR84” (Bayer Aktiengesellschaft, priority 2021, published 2024).)
